Patent publication US10533015B1, “Opioid receptor antagonist prodrugs” (Nirsum Laboratories, Inc., priority 2019, dated 2020)
Where two headings read alike, the source gives them in different places.

Assays:
[1] = cited from earlier work
[2] = target: T1, DOR (Homo sapiens, UniProt P41143); assay: Opioid receptor binding assay, DOR ([3H]-DADLE); conditions: MaxDose 10000 nM
T1 construct: expressed in transfected cells
Procedure: Receptor binding assays were performed to assess the ability of compounds to inhibit binding to radiolabeled ligand.
The stable cell lines were established and prepared cell membrane obtained using these cell lines.
3) Assay Procedure 1) Transfer 1 μl of specified concentration compound to assay plate according to the plate map for nonspecific binding. Transfer 1 μl of DMSO to assay plate according to plate map for total binding. 2) Follow the plate map. Dispense 99 μl of membrane stocks into the plate. 3) Add 100 μl of radio ligand. 4) Seal the plates. Incubate at RT for 1 hour. 5) Soak the Unifilter-96 GF/C filter plates with 50 μl of 0.3% PEI per well for at least 0.5 hour at room temperature. 6) When binding assays are completed, filter the reaction mixture through GF/C plates using Perkin Elmer Filtermate Harvester, and then wash each plate for 4 times with cold wash buffer. 7) Dry the filter plates for 1 hour at 50 degrees. 8) After drying, seal the bottom of the filter plate wells using Perkin Elmer Unifilter-96 backing seal tape. Add 50 μl of Perkin Elmer Microscint 20 cocktail. Seal top of filter plates with Perkin Elmer TopSeal-A sealing film. 9) Count ^3H trapped on filter using Perkin Elmer MicroBeta2 Reader second day. 10) Analyze the data with GraphPad Prism 5. Calculate the “Inhibition [% Control]” using the equation: % Inh=(1-Background subtracted Assay value/Background subtracted HC value)*100. Results

[3] = Plasma stability assay, human plasma; format: in vitro ADME; conditions: 2 μM, 37° C.
Procedure: (§1) Plasma stability determination of the test compounds in rat, dog, cynomolgus monkey and human plasma is performed using HPLC-MS. For rat, incubations are carried out in 96-well polypropylene plates in 5 aliquots of 70 μL each (one for each time point). […] Five time points are analyzed (0, 15, 120, 480 and 1440 min). […] All incubations are performed in duplicates. The samples are analyzed by HPLC-MS. The percentage of parent compound remaining after incubation in plasma is determined.

[4] = Liver S9 fraction stability, dog; format: in vitro ADME; conditions: dog liver S9, 1.0 mg/ml S9 protein, 2 μM, 37° C.
Procedure: (§2) Liver S9 fraction stability determination of the test compounds in dog, cynomolgus monkey and human is performed using HPLC-MS. Test compound (2 μM, 0.1% DMSO, 1% Methanol final concentration) was assessed for stability in a 50 μl phosphate buffer containing 1.0 mg/ml S9 protein from each of the three species and 5 mM D-saccharic acid-1, 4-lactone. Samples were incubated at 37° C. for 60 minutes and the % compound remaining was assessed.

[5] = Plasma stability assay, rat plasma; format: in vitro ADME; conditions: 10 μM, 37° C.
Summary of the method: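 Duplicate incubations; HPLC-MS quantitation of remaining parent (%). Rat plasma: 0/15/120/480/1440 min. Dog, cyno, human plasma: 2 μM cpd, 1% solvent, 37 °C, 0/10/30/60/120 min.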

[6] = Liver S9 fraction stability, human; format: in vitro ADME; conditions: human liver S9, 1.0 mg/ml S9 protein, 2 μM, 37° C.
Procedure: as §2

[7] = Plasma stability assay, dog plasma; format: in vitro ADME; conditions: 2 μM, 37° C.
Procedure: as §1

[8] = Plasma stability assay, monkey plasma; format: in vitro ADME, cynomolgus monkey; conditions: 2 μM, 37° C.
Procedure: as §1

[9] = Liver S9 fraction stability, monkey; format: in vitro ADME, cynomolgus monkey; conditions: monkey liver S9, 1.0 mg/ml S9 protein, 2 μM, 37° C.
Procedure: as §2

[10] = Polymorph screening of solid state drug substances; conditions: for Dry method and appearance: after stirring 50 °C 72 hours, dried solid; for XRPD results (Dried): dried solid after 50 °C 72 hours; for Visual observation 50° C. / Visual observation RT: target conc. 100 mg/ml
[11] = not given; remark: listed apart in the source
[12] = Rat pharmacokinetic studies, intramuscular; format: in vivo, male Sprague Dawley Rats; conditions: 0.80 mg/kg, saline
Procedure: The purpose of this study is to determine the pharmacokinetics of test compounds in plasma, following intramuscular administration to male Sprague Dawley Rats (n=3, unless otherwise specified).
The dose formulation of 400 mg base equivalents/ml in sesame oil+1% benzyl alcohol (unless otherwise specified) was administered by intramuscular injection. The dose volume was determined by the animals' body weight determined on the morning of dosing day.
Each collected blood sample was centrifuged for 4 minutes at 4° C. and 10000 rpm for plasma collection. Plasma was collected and transferred into a pre-labeled PP tube in dry ice at each time point and precipitated immediately using ACN at a ratio of 1:4 (plasma:ACN). Centrifuged again (10 minutes, 12000 rpm) and obtain the supernatant. After terminal collection, all supernatant was stored at approximately −80° C. until bioanalysis.
LC-MS/MS methods for the quantitative determination of test compound in biological matrix were developed. […] The sample analysis was performed concurrently with a set of calibration standards and two sets of QC samples using the LC-MS/MS method.
Plasma concentration versus time data was analyzed by non-compartmental approaches using the Phoenix WinNonlin 6.3 software program. Cmax, Tmax, T1/2, AUC(0-t), AUC(0-inf), MRT(0-t), MRT(0-inf) and graphs of plasma concentration versus time profile were prepared.

[13] = heating temp. 60 °C, obs. temp. 25 °C
[14] = heating temp. 40 °C, obs. temp. 40 °C
[15] = heating temp. 60 °C, obs. temp. 40 °C

T1 sequence (P41143 whole entry): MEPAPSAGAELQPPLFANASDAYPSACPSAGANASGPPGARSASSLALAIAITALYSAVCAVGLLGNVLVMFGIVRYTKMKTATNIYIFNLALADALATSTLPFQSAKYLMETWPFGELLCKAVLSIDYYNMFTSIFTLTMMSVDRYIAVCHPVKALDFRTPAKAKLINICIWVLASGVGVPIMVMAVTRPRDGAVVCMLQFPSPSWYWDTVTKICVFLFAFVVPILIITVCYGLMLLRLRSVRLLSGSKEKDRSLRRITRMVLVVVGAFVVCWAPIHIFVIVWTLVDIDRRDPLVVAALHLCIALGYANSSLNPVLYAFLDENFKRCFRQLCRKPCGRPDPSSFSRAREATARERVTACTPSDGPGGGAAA

**Q.** For Oc1ccc2c3c1O[C@H]1[C@H](O)CC[C@@]4(O)[C@@H](C2)N(CC2CC2)CC[C@]314 [6-β-naltrexol], which “time of peak plasma levels after oral dosing” value [1] is on record?
**A.** within one hour

**Q.** What about the mean elimination half-life ([1]; oral dosing) of the same compound?
**A.** thirteen

**Q.** Which “% Inh@MaxDose” value [2] does the source give for C=C1CC[C@@]2(O)C3Cc4ccc(OC(=O)OCCCCCCCCCCCC)c5c4[C@@]2(CCN3CC2CC2)[C@H]1O5 [Compound 6, (4aS,7aS,12bS)-3-(cyclopropylmethyl)-4a-hydroxy-7-methylene-2,3,4,4a,5,6,7,7a-octahydro-1H-4,12-methanobenzofuro[3,2-e]isoquinolin-9-yl dodecyl carbonate] here?
**A.** 70.9%

**Q.** What about the “% remaining at time point” value ([3]; 0 min) of the same compound?
**A.** 100%

**Q.** And the “% remaining at time point” value ([3]; 15 min (head))?
**A.** 97.6%

**Q.** And the “% remaining at time point” value ([3]; 120 min (head))?
**A.** 102%

**Q.** What about the “% remaining at time point” value ([3]; 480 min (head)) of the same compound?
**A.** 109.8%

**Q.** And the “% remaining at time point” value ([3]; 1440 min (head))?
**A.** 115.1%

**Q.** And the “Approximate Solubility (mg/mL) in Excipient: Cottonseed oil” value (“Approximate Solubility … Cottonseed oil” for short) [13]?
**A.** >397 mg/mL

**Q.** What about the “Approximate Solubility (mg/mL) in Excipient: Ethanol” value [14] of the same compound?
**A.** 120 to 170 mg/mL

**Q.** And the “Approximate Solubility (mg/mL) in Excipient: Sesame oil” value (“Approximate Solubility … Sesame oil” below) [14]?
**A.** >402.8 mg/mL

**Q.** And the “Approximate Solubility … Sesame oil” value [13]?
**A.** >386 mg/mL

**Q.** What about the “% remaining at 60 minutes” value [4] of the same compound?
**A.** 17.1%

**Q.** And the “% remaining at time point” value ([5]; 0 min)?
**A.** 100%

**Q.** What about the “% remaining at time point” value ([5]; 15 min) of the same compound?
**A.** 31.3%

**Q.** And the “% remaining at time point” value ([5]; 120 min)?
**A.** 7.6%

**Q.** What about the “% remaining at time point” value ([5]; 480 min) of the same compound?
**A.** 4%

**Q.** What about the “% remaining at time point” value ([5]; 1440 min) of the same compound?
**A.** 1.6%

**Q.** And the “% remaining at 60 minutes” value [6]?
**A.** 5.3%

**Q.** And the “% remaining at time point” value ([7]; 0 min)?
**A.** 100%

**Q.** And the “% remaining at time point” value ([7]; 15 min (head))?
**A.** 89.1%

**Q.** What about the “% remaining at time point” value ([7]; 120 min (head)) of the same compound?
**A.** 96.9%

**Q.** And the “% remaining at time point” value ([7]; 480 min (head))?
**A.** 107.2%

**Q.** What about the “% remaining at time point” value ([7]; 1440 min (head)) of the same compound?
**A.** 101.2%

**Q.** And the “% remaining at time point” value ([8]; 0 min)?
**A.** 100%

**Q.** What about the “% remaining at time point” value ([8]; 15 min (head)) of the same compound?
**A.** 88.7%

**Q.** And the “% remaining at time point” value ([8]; 120 min (head))?
**A.** 74.3%

**Q.** And the “% remaining at time point” value ([8]; 480 min (head))?
**A.** 68.4%

**Q.** What about the “% remaining at time point” value ([8]; 1440 min (head)) of the same compound?
**A.** 70.1%

**Q.** What about the “% remaining at 60 minutes” value [9] of the same compound?
**A.** 0%

**Q.** Which “Dry method and appearance” value ([10]; Acetone) does the source give for C=C1CC[C@@]2(O)C3Cc4ccc(OC(=O)NC(C)(C)C)c5c4[C@@]2(CCN3CC2CC2)[C@H]1O5 [Compound 40, (4aS,7aS,12bS)-3-(cyclopropylmethyl)-4a-hydroxy-7-methylene-2,3,4,4a,5,6,7,7a-octahydro-1H-4,12-methanobenzofuro[3,2-e]isoquinolin-9-yl tert-butylcarbamate] here?
**A.** Evaporation/white powder

**Q.** And the “XRPD results (Dried)” value ([10]; Acetone)?
**A.** Amorphous

**Q.** And the “Visual observation 50° C.” value ([10]; Acetone)?
**A.** Clear

**Q.** What about the “Visual observation RT” value ([10]; Acetone) of the same compound?
**A.** Slurry

**Q.** What about the “Dry method and appearance” value ([10]; EtOAc) of the same compound?
**A.** Evaporation/white powder

**Q.** What about the “XRPD results (Dried)” value ([10]; EtOAc) of the same compound?
**A.** Pattern A

**Q.** And the “Visual observation 50° C.” value ([10]; EtOAc)?
**A.** Clear

**Q.** And the “Visual observation RT” value ([10]; EtOAc)?
**A.** Slurry

**Q.** And the “Dry method and appearance” value ([10]; Heptane)?
**A.** Centrifugation/white powder

**Q.** What about the “XRPD results (Dried)” value ([10]; Heptane) of the same compound?
**A.** Pattern A

**Q.** And the “Visual observation 50° C.” value ([10]; Heptane)?
**A.** Slurry

**Q.** And the “Visual observation RT” value ([10]; Heptane)?
**A.** Slurry

**Q.** And the “Dry method and appearance” value ([10]; Isopropanol)?
**A.** Evaporation/oil

**Q.** What about the “XRPD results (Dried)” value ([10]; Isopropanol) of the same compound?
**A.** Amorphous

**Q.** And the “Visual observation 50° C.” value ([10]; Isopropanol)?
**A.** Clear

**Q.** What about the “Visual observation RT” value ([10]; Isopropanol) of the same compound?
**A.** Slurry

**Q.** And the “Dry method and appearance” value ([10]; MTBE)?
**A.** Evaporation/white powder

**Q.** What about the “XRPD results (Dried)” value ([10]; MTBE) of the same compound?
**A.** Amorphous

**Q.** What about the “Visual observation 50° C.” value ([10]; MTBE) of the same compound?
**A.** Clear

**Q.** And the “Visual observation RT” value ([10]; MTBE)?
**A.** Clear

**Q.** And the melting point [11]?
**A.** 107.6 °C

**Q.** With C=C1CC[C@@]2(O)C3Cc4ccc(OC(=O)CCCCCCCCCCCCCCC)c5c4[C@@]2(CCN3CC2CC2)[C@H]1O5 [Compound 56, (4aS,7aS,12bS)-3-(cyclopropylmethyl)-4a-hydroxy-7-methylene-2,3,4,4a,5,6,7,7a-octahydro-1H-4,12-methanobenzofuro[3,2-e]isoquinolin-9-yl palmitate] as the compound, how does the “Approximate Solubility … Cottonseed oil” value [13] read?
**A.** <50 mg/mL

**Q.** What about the “Approximate Solubility … Cottonseed oil” value [15] of the same compound?
**A.** 25 to 50 mg/mL

**Q.** What about the “Approximate Solubility (mg/mL) in Excipient: Ethanol” value [15] of the same compound?
**A.** <40.4 mg/mL

**Q.** And the “Approximate Solubility … Sesame oil” value [13]?
**A.** <50 mg/mL

**Q.** What about the “Approximate Solubility … Sesame oil” value [15] of the same compound?
**A.** 25 to 50 mg/mL

**Q.** And the “% remaining at time point” value ([5]; 0 min)?
**A.** 100%

**Q.** And the “% remaining at time point” value ([5]; 15 min)?
**A.** 73.1%

**Q.** And the “% remaining at time point” value ([5]; 120 min)?
**A.** 56.7%

**Q.** And the “% remaining at time point” value ([5]; 480 min)?
**A.** 35.8%

**Q.** What about the “% remaining at time point” value ([5]; 1440 min) of the same compound?
**A.** 16.8%

**Q.** What about the melting point [11] of the same compound?
**A.** 48.95 °C

**Q.** With C=C1CC[C@@]2(O)C3Cc4ccc(O)c5c4[C@@]2(CCN3CC2CC2)[C@H]1O5.Cl [Nalmefene HCl-IR] as the compound, how does the “AUC0-inf (ng · h/mL) nalmefene” value [12] read?
**A.** 66.0 ng·h/mL

**Q.** What about the “Terminal Half-life t1/2 (hour) nalmefene” value [12] of the same compound?
**A.** 0.87 h
